Results published in PubChem BioAssay AID328 (DTP/NCI, 2004).
Several values for one entry are separate records, joined by “and”; a condition that tells them apart may be missing. Equal values may be shown once. Toxic doses and inconclusive results are not listed.

System: BDF1 mice, P388 leukemia ip, median survival T/C
Test: NCI In Vivo Anticancer Drug Screen. Data for tumor model P388 Leukemia (intraperitoneal) in B6D2F1 (BDF1) mice
Details: endpoint: median survival time, higher = longer survival
Method in brief: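 Each value expresses how treatment altered survival: treated-mouse outcome over vehicle-mouse outcome, both groups bearing the transplanted tumour.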

[1] = dose: 200.0 mg/kg/injection, schedule: Q01DX009 (ip), vehicle: saline with Tween-80
[2] = dose: 200.0 mg/kg/injection, schedule: Q04DX003 (ip), vehicle: saline
[3] = dose: 400.0 mg/kg/injection, schedule: Q04DX003 (ip), vehicle: saline
[4] = dose: 25.0 mg/kg/injection, schedule: Q01DX009 (ip), vehicle: saline with Tween-80
[5] = dose: 50.0 mg/kg/injection, schedule: Q01DX009 (ip), vehicle: saline with Tween-80
[6] = dose: 100.0 mg/kg/injection, schedule: Q01DX009 (ip), vehicle: saline with Tween-80
[7] = dose: 100.0 mg/kg/injection, schedule: Q04DX003 (ip), vehicle: saline with Tween-80
[8] = dose: 200.0 mg/kg/injection, schedule: Q04DX003 (ip), vehicle: saline with Tween-80
[9] = dose: 400.0 mg/kg/injection, schedule: Q04DX003 (ip), vehicle: saline with Tween-80
[10] = dose: 25.0 mg/kg/injection, schedule: Q04DX003 (ip), vehicle: saline

ClC(Cl)(Cl)C(Cl)(Cl)c1ccc(C(Cl)(Cl)C(Cl)(Cl)Cl)cc1
T/C (dose: 18.75 mg/kg/injection, schedule: Q01DX009 (ip), vehicle: saline with Tween-80): 100 % of control
T/C (dose: 37.5 mg/kg/injection, schedule: Q01DX009 (ip), vehicle: saline with Tween-80): 100 % of control
T/C (dose: 75.0 mg/kg/injection, schedule: Q01DX009 (ip), vehicle: saline with Tween-80): 100 % of control
T/C (dose: 100.0 mg/kg/injection, schedule: Q04DX003 (ip), vehicle: saline sonified): 100 % of control
T/C [1]: 92 % of control
T/C (dose: 400.0 mg/kg/injection, schedule: Q04DX003 (ip), vehicle: saline sonified): 95 % of control

Cn1cnc([N+](=O)[O-])c1Sc1nc(N)nc2c1ncn2C1CC(O)C(CO)O1 (stereo unspecified)
T/C (dose: 6.25 mg/kg/injection, schedule: Q01DX005 (ip), vehicle: Klucel (hydroxypropylcellulose) (HPC)): 155 % of control
T/C (dose: 6.25 mg/kg/injection, schedule: Q01DX009 (ip), vehicle: saline): 161 % of control
T/C (dose: 25.0 mg/kg/injection, schedule: Q01DX009 (ip), vehicle: saline): 114 % of control and 95 % of control
T/C (dose: 50.0 mg/kg/injection, schedule: Q01DX005 (ip), vehicle: Klucel (hydroxypropylcellulose) (HPC)): 86 % of control
T/C (dose: 50.0 mg/kg/injection, schedule: Q01DX009 (ip), vehicle: saline): 107 % of control
T/C (dose: 150.0 mg/kg/injection, schedule: Q01DX009 (ip), vehicle: saline): 107 % of control
T/C (dose: 200.0 mg/kg/injection, schedule: Q01DX009 (ip), vehicle: saline): 109 % of control and 110 % of control
T/C [2]: 118 % of control
T/C (dose: 400.0 mg/kg/injection, schedule: Q01DX009 (ip), vehicle: saline): 91 % of control and 116 % of control
T/C [3]: 113 % of control

CNC(=S)N/N=C(\C)c1snc(C)c1Br
T/C [4]: 94 % of control
T/C [5]: 103 % of control
T/C [6]: 96 % of control

O=C(O)CC/C(=N\O)c1cccc([N+](=O)[O-])c1
T/C [7]: 100 % of control
T/C [8]: 100 % of control
T/C [9]: 95 % of control

O=C(Cl)C1=C(c2ccccc2)C1c1ccccc1 (stereo unspecified)
T/C [5]: 102 % of control
T/C [6]: 101 % of control

CS(=O)(=O)CC(O)(c1ccccc1)c1ccncc1 (stereo unspecified)
T/C [5]: 96 % of control
T/C [6]: 90 % of control
T/C [1]: 98 % of control

NC(=S)c1ccc[n+](Cc2c(Cl)cccc2Cl)c1
T/C (dose: 50.0 mg/kg/injection, schedule: Q04DX002 (ip), vehicle: saline with Tween-80): 110 % of control
T/C (dose: 100.0 mg/kg/injection, schedule: Q04DX002 (ip), vehicle: saline with Tween-80): 101 % of control

COc1cc(N2C(N)=NC(N)=NC2(C)C)cc(OC)c1OC
T/C (dose: 6.25 mg/kg/injection, schedule: Q04DX003 (ip), vehicle: saline): 100 % of control
T/C (dose: 12.5 mg/kg/injection, schedule: Q04DX003 (ip), vehicle: saline): 115 % of control
T/C [10]: 100 % of control

CCN(CC)c1ccc(Cc2ccc(N(CC)CC)cc2Br)c(Br)c1
T/C (dose: 100.0 mg/kg/injection, schedule: Q04DX003 (ip), vehicle: Klucel (hydroxypropylcellulose) (HPC)): 111 % of control
T/C (dose: 200.0 mg/kg/injection, schedule: Q04DX003 (ip), vehicle: Klucel (hydroxypropylcellulose) (HPC)): 111 % of control
T/C (dose: 400.0 mg/kg/injection, schedule: Q04DX003 (ip), vehicle: Klucel (hydroxypropylcellulose) (HPC)): 111 % of control

Cc1ccc(-c2nc3ccccc3c(=O)n2/N=C/c2ccccc2)cc1
T/C [5]: 90 % of control
T/C [6]: 93 % of control

O=[N+]([O-])c1ccc(-[n+]2nc(-c3ccccc3)nn2-c2ccc(I)cc2)cc1
T/C (dose: 12.5 mg/kg/injection, schedule: Q01DX009 (ip), vehicle: Klucel (hydroxypropylcellulose) (HPC)): 100 % of control
T/C (dose: 16.5 mg/kg/injection, schedule: Q04DX003 (ip), vehicle: Klucel (hydroxypropylcellulose) (HPC)): 90 % of control
T/C (dose: 16.5 mg/kg/injection, schedule: Q04DX003 (ip), vehicle: saline): 122 % of control
T/C (dose: 25.0 mg/kg/injection, schedule: Q01DX009 (ip), vehicle: Klucel (hydroxypropylcellulose) (HPC)): 110 % of control
T/C (dose: 25.0 mg/kg/injection, schedule: Q04DX003 (ip), vehicle: Klucel (hydroxypropylcellulose) (HPC)): 109 % of control
T/C [10]: 109 % of control
T/C (dose: 37.5 mg/kg/injection, schedule: Q04DX003 (ip), vehicle: Klucel (hydroxypropylcellulose) (HPC)): 100 % of control
T/C (dose: 37.5 mg/kg/injection, schedule: Q04DX003 (ip), vehicle: saline): 122 % of control

CC(C)C(Br)C(=O)NC(Cc1ccccc1)C(=O)O (stereo unspecified)
T/C [7]: 109 % of control
T/C [8]: 100 % of control
T/C [9]: 95 % of control

Clc1ccc(C2(C3CCNCC3)CCCO2)cc1 (stereo unspecified)
T/C [5]: 106 % of control
T/C [6]: 90 % of control

CCSc1nc(C=O)c(Cc2ccc(Br)cc2)c(=O)[nH]1
T/C [7]: 109 % of control
T/C [8]: 122 % of control
T/C [9]: 150 % of control

CC[N-]c1nnnn1CC.[Au+].c1ccc([PH+](c2ccccc2)c2ccccc2)cc1
T/C (dose: 12.5 mg/kg/injection, schedule: Q01DX001 (ip), vehicle: saline with Tween-80): 100 % of control
T/C (dose: 25.0 mg/kg/injection, schedule: Q01DX001 (ip), vehicle: saline with Tween-80): 111 % of control

CC1=NNC(=O)C1CCO (stereo unspecified)
T/C (dose: 50.0 mg/kg/injection, schedule: Q01DX009 (ip), vehicle: Klucel (hydroxypropylcellulose) (HPC)): 86 % of control
T/C (dose: 100.0 mg/kg/injection, schedule: Q01DX009 (ip), vehicle: Klucel (hydroxypropylcellulose) (HPC)): 104 % of control
T/C (dose: 175.0 mg/kg/injection, schedule: Q01DX009 (ip), vehicle: Klucel (hydroxypropylcellulose) (HPC)): 90 % of control
T/C (dose: 200.0 mg/kg/injection, schedule: Q01DX009 (ip), vehicle: Klucel (hydroxypropylcellulose) (HPC)): 122 % of control
T/C (dose: 265.0 mg/kg/injection, schedule: Q01DX009 (ip), vehicle: Klucel (hydroxypropylcellulose) (HPC)): 104 % of control
T/C (dose: 400.0 mg/kg/injection, schedule: Q01DX009 (ip), vehicle: Klucel (hydroxypropylcellulose) (HPC)): 95 % of control

CCOC(=O)CNCc1cccnc1
T/C (dose: 100.0 mg/kg/injection, schedule: Q04DX003 (ip), vehicle: saline): 120 % of control
T/C [2]: 117 % of control
T/C [3]: 118 % of control

CC(=O)OCC12CCC(C)=CC1O[C@H]1[C@@H](OC(C)=O)[C@H](OC(C)=O)[C@]2(C)[C@@]12CO2 (stereo partly specified)
T/C (dose: 2.5 mg/kg/injection, schedule: Q04DX002 (ip), vehicle: saline + alcohol): 96 % of control

CC(=O)C1=C(O)C2C3c4c[nH]c5cccc(c45)CC3C(C)(C)N2C1=O (stereo unspecified)
T/C (dose: 0.5 mg/kg/injection, schedule: Q01DX010 (ip), vehicle: saline): 100 % of control
T/C (dose: 1.0 mg/kg/injection, schedule: Q01DX010 (ip), vehicle: saline): 100 % of control
T/C (dose: 2.0 mg/kg/injection, schedule: Q01DX010 (ip), vehicle: saline): 100 % of control
T/C (dose: 4.0 mg/kg/injection, schedule: Q01DX010 (ip), vehicle: saline): 110 % of control

O=C(O)c1ccc(=O)oc1
T/C (dose: 12.5 mg/kg/injection, schedule: Q01DX009 (ip), vehicle: saline with Tween-80): 108 % of control
T/C [4]: 99 % of control and 100 % of control
T/C [5]: 108 % of control
T/C [6]: 124 % of control
T/C [1]: 124 % of control

CCOC(=O)c1c(-c2ccccc2)cn2c1OC(C)CC2(C)C (stereo unspecified)
T/C (dose: 50.0 mg/kg/injection, schedule: Q01DX001 (ip), vehicle: saline sonified): 100 % of control
T/C (dose: 100.0 mg/kg/injection, schedule: Q01DX001 (ip), vehicle: saline sonified): 100 % of control
T/C (dose: 200.0 mg/kg/injection, schedule: Q01DX001 (ip), vehicle: saline sonified): 95 % of control

CC(C(=O)O)C(=O)O.[NH-]CC[NH-].[Pt+2]
T/C (dose: 3.13 mg/kg/injection, schedule: Q01DX009 (ip), vehicle: water): 167 % of control
T/C (dose: 6.25 mg/kg/injection, schedule: Q01DX009 (ip), vehicle: water): 181 % of control
T/C (dose: 12.5 mg/kg/injection, schedule: Q01DX009 (ip), vehicle: water): 90 % of control
T/C (dose: 25.0 mg/kg/injection, schedule: Q01DX009 (ip), vehicle: water): 214 % of control

NNC(=O)c1cccc(N)c1
T/C [4]: 100 % of control
T/C [5]: 90 % of control
T/C [6]: 100 % of control

CN(C)NC1OC(C(O)S(=O)(=O)O)C(OCc2ccccc2)C(OCc2ccccc2)C1O (stereo unspecified)
T/C [5]: 109 % of control
T/C [6]: 98 % of control
T/C [1]: 94 % of control

COc1cc2c3c(c1O)Oc1ccc(cc1)C[C@@H]1c4c(cc(OC)c(O)c4Oc4ccc(cc4)C[C@H]3N(C)CC2)CCN1C
T/C (dose: 40.0 mg/kg/injection, schedule: Q01DX010 (ip), vehicle: saline): 95 % of control
T/C (dose: 80.0 mg/kg/injection, schedule: Q01DX010 (ip), vehicle: saline): 100 % of control
T/C (dose: 160.0 mg/kg/injection, schedule: Q01DX010 (ip), vehicle: saline): 105 % of control
T/C (dose: 320.0 mg/kg/injection, schedule: Q01DX010 (ip), vehicle: saline): 90 % of control
